# In patent publication US20200306377A1, “METHODS FOR ENHANCING 5-AMINOLEVULINIC ACID-BASED MEDICAL IMAGING AND PHOTOTHERAPY” (priority 2017, published 2020):
# Tests used:
# Type in all cases: cell-based
# [1] = test system: SKBR3 human breast cancer cells; assay: Comparison of 5-ALA intracellular uptake, fluorescence microscopy; conditions: incubation 3, 5, 16 h, QDs about 50 ug/mL, free 5-ALA 200 uM
# Experimental: SKBR3 human breast cancer cells are cultivated in 6 well plates supplied with glass coverslips using McCoy's 5a medium from ATCC (3 mL per well). […] solution in deionized H2O at 100 mM was prepared and added when required at a final concentration of 200 uM (6 uL per well). After the predetermined incubation time, cells are fixed using the following protocol. The medium was removed and the cells gently rinsed with PBS buffer (2 mL per well), two mL fixation medium (3.7% formaldehyde in PBS) was added followed by incubation at room temperature (RT) for 15 min. The fixation medium was removed and fresh PBS was added to gently rinse the cells. The coverslips were removed from the wells and mounted on glass slides. […] Within each study, all microscopic settings (filter, light intensity, exposure time, and magnification) were identical.
# [2] = test system: SKBR3 human breast cancer cells; assay: Resistance to photo-bleaching after uptake and irradiation; conditions: after uptake, 1 minute of irradiation
# Experimental: A 5-ALA solution in deionized H2O at 100 mM was prepared and added when required at a final concentration of 200 uM (6 uL per well). After the predetermined incubation time, cells are fixed using the following protocol. The medium was removed and the cells gently rinsed with PBS buffer (2 mL per well), two mL fixation medium (3.7% formaldehyde in PBS) was added followed by incubation at room temperature (RT) for 15 min. The fixation medium was removed and fresh PBS was added to gently rinse the cells. The coverslips were removed from the wells and mounted on glass slides. […] Within each study, all microscopic settings (filter, light intensity, exposure time, and magnification) were identical. Microscopic images of the cells after treatment with various types of QDs and/or 5-ALA are shown in FIGS. 2A-2L through FIGS. 4A-4K.
# [3] = test system: normal human fibroblast cells (HFF); assay: Labeling of normal fibroblast cells; conditions: 16 hrs, QD 50 μg/mL, free 5-ALA 0.2 mM
smiles,measurement,setting,value
"NCC(=O)CCC(=O)O [free 5-ALA, 5-Aminolevulinic acid]",emission at 630 nm,[1],weaker emission
same,photo-bleaching,[2],rapid photo-bleaching and signal disappearance
same,labeling of normal cells,[3],lack of labeling
